21 compounds from patent publication US8119630B2 (Arrow Therapeutics Limited, priority 2002, dated 2012) can be followed below.

What is called IC50 is the concentration that gives 50% inhibition.

One data set has as its system RSV. Description: XTT assay, RSV-infected Hep-2 cells. The following applies: Table 2, Examples 75 to 82 and 125 to 184, Hep-2 cells infected with RSV, 6 days at 37° C. Format: cell-based, Respiratory Syncytial Virus (RSV). The method, boiled down:
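Hep-2 cells (4×10^4/well) infected with RSV titrated for 80% cell kill and treated with 25 μM compound (0.5% DMSO) for 6 days at 37 °C. Viability read by XTT/PMS at OD450 after 1 h; uninfected control set as 100% and infected control as 0% inhibition, with IC50 from graph or regression.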
On the technique in general: Tetrazolium dyes change colour on reduction, which living cells bring about.

The subject of a further data set is Hep-2 cells. Description: Toxicity studies (XTT), Hep-2 cells. Format: cell-based. Also on record: TC50 (6d): unit not given beside the values. The following applies: for TC50 (6d): Table 2, Examples 75 to 82 and 125 to 184, 6d, in µM; for TC50 (2d): Table 2, Examples 75 to 82 and 125 to 184, 2d.
Setting [1] is: human respiratory syncytial virus, 144 h.

Regarding `O=C(N[C@H]1N=C(c2ccccc2)c2ccccc2NC1=O)c1ccccc1O` [Example 80b, (S)-2-Hydroxy-N-(2-oxo-5-phenyl-2,3-dihydro-1H-benzo[e][1,4]diazepin-3-yl)-benzamide], in the data set with RSV (setting [1]), the IC50 is 2 µM. Besides, in the data set with Hep-2 cells, the “TC50 (6d)” value is reported as over 50.
In the data set with RSV, “Thiophene-2-carboxylic acid [5-(3-methoxy-phenyl)-2-oxo-5-phenyl-2,3-dihydro-1H-benzo[e][1,4]diazepin-3-yl]-amide [Example 164]” displayed an IC50 of 4 µM. Besides, in the data set with Hep-2 cells, the TC50 (2d) was found to be 100 µM and the “TC50 (6d)” value is on record as 100.
Compound `O=C(Nc1cccc(C(F)(F)F)c1)NC1N=C(c2ccccc2)c2ccccc2NC1=O` (stereo not drawn) [Example 130, 1-(2-Oxo-5-phenyl-2,3-dihydro-1H-benzo[e][1,4]diazepin-3-yl)-3-(3-trifluoromethyl-phenyl)-urea] registered an IC50 with RSV (setting [1]) of 9.7 µM. Besides, in the data set on Hep-2 cells, the “TC50 (6d)” value was 39.5.
Compound `Cc1ccc2c(c1)NC(=O)C(NC(=O)c1cccs1)N=C2c1ccccc1` (stereo not drawn) [Example 169, Thiophene-2-carboxylic acid (8-methyl-2-oxo-5-phenyl-2,3-dihydro-1H-benzo[e][1,4]diazepin-3-yl)-amide] showed an IC50 in the data set with RSV (setting [1]) of 5 µM. In addition, in the data set on Hep-2 cells, the TC50 (2d) was 50 µM and the “TC50 (6d)” value was 30.
As to `O=C(NC1N=C(c2ccccc2)c2ccccc2NC1=O)C(=O)c1cccs1` (stereo not drawn) [Example 184, 2-Oxo-N-(2-oxo-5-phenyl-2,3-dihydro-1H-benzo[e][1,4]diazepin-3-yl)-2-thiophene-2-yl-acetamide], the IC50 in the data set on RSV (setting [1]) is 9.5 µM. Also, the TC50 (2d) in the data set on Hep-2 cells was over 50 µM.
Take “N-[5-(3-Chloro-phenyl)-2-oxo-5-phenyl-2,3-dihydro-1H-benzo[e][1,4]diazepin-3-yl)acetamide [Example 154]”: in the data set with RSV, the IC50 turned out to be 3 µM. In the data set on Hep-2 cells, the TC50 (2d) was over 100 µM and the “TC50 (6d)” value is recorded as over 100.
In the data set with RSV (setting [1]), `COc1ccc(C(C)(C)C)cc1C(=O)NC1N=C(c2ccccc2)c2ccccc2NC1=O` (stereo not drawn) [Example 125, 5-tert-Butyl-2-methoxy-N-(2-oxo-5-phenyl-2,3-dihydro-1H-benzo[e][1,4]diazepin-3-yl)-benzamide] showed an IC50 of 6.1 µM. Also, the “TC50 (6d)” value in the data set on Hep-2 cells was over 50.
`CCCOc1ccccc1C(=O)NC1N=C(c2ccccc2)c2ccccc2NC1=O` (stereo not drawn) [Example 137, N-(2-Oxo-5-phenyl-2,3-dihydro-1H-benzo[e][1,4]diazepin-3-yl)-2-propoxy-benzamide] showed an IC50 in the data set on RSV (setting [1]) of 8.3 µM. Also, in the data set with Hep-2 cells, the “TC50 (6d)” value was over 50.
For `O=C(NC1N=C(c2ccccc2)c2ccccc2NC1=O)c1cccc2c1C(=O)c1ccccc1-2` (stereo not drawn) [Example 176, 9-Oxo-9H-fluorene-1-carboxylic acid (2-oxo-5-phenyl-2,3-dihydro-1H-benzo[e][1,4]diazepin-3-yl)-amide], in that order: 4.3 µM and 99.
As for `O=C(NC1N=C(c2ccccc2)c2ccccc2NC1=O)c1ccccn1` (stereo not drawn) [Example 172, Pyridine-2-carboxylic-acid (2-oxo-5-phenyl-2,3-dihydro-1H-benzo[e][1,4]diazepin-3-yl)-amide], in the data set with RSV (setting [1]), the IC50 was 6.4 µM. Also, the “TC50 (6d)” value in the data set on Hep-2 cells worked out at 137.8.
On to “Piperidine-1-carboxylic acid [5-(3-methoxy-phenyl)-2-oxo-5-phenyl-2,3-dihydro-1H-benzo[e][1,4]diazepin-3-yl]-amide [Example 166]”, for which the IC50 with RSV came out at 5 µM. Further, in the data set on Hep-2 cells, the TC50 (2d) was over 100 µM and the “TC50 (6d)” value was over 100.
`COC(=O)c1ccc(C(=O)NC2N=C(c3ccccc3)c3ccccc3NC2=O)c(OC)c1` (stereo not drawn) [Example 139, 3-Methoxy-N-(2-oxo-5-phenyl-2,3-dihydro-H-benzo[e][1,4]diazepin-3-yl)-terephthalamic acid methyl ester] showed an IC50 in the data set with RSV of 9.2 µM. Besides, in the data set on Hep-2 cells, the “TC50 (6d)” value turned out to be 98.
For `O=C(Nc1cccc(Cl)c1)NC1N=C(c2ccccc2)c2ccccc2NC1=O` (stereo not drawn) [Example 131], in that order: 9.6 µM and over 50.
In turn, `O=C(Nc1c(F)cccc1F)NC1N=C(c2ccccc2)c2ccccc2NC1=O` (stereo not drawn) [Example 127, 1-(2,6-Difluoro-phenyl)-3-(2-oxo-5-phenyl-2,3-dihydro-1H-benzo[e][1,4]diazepin-3-yl)-urea] displayed an IC50 in the data set on RSV (setting [1]) of 9.4 µM. Moreover, the “TC50 (6d)” value in the data set with Hep-2 cells is listed as over 50.
In turn, `O=C(CC(O)c1ccccc1)NC1N=C(c2ccccc2)c2ccccc2NC1=O` (stereo not drawn) [Example 145, 3-Hydroxy-N-(2-oxo-5-phenyl-2,3-dihydro-1H-benzo[e][1,4]diazepin-3-yl)-3-phenyl-propionamide] showed an IC50 in the data set on RSV (setting [1]) of 1.9 µM. Further, the TC50 (2d) with Hep-2 cells is over 50 µM.
In the data set with RSV (setting [1]), `O=C(NC1N=C(c2ccccc2)c2ccccc2NC1=O)c1cn[nH]c1` (stereo not drawn) [Example 173, 1H-Pyrazole-4-carboxylic acid (2-oxo-5-phenyl-2,3-dihydro-1H-benzo[e][1,4]diazepin-3-yl)-amide] yielded an IC50 of 8.3 µM. In addition, the “TC50 (6d)” value with Hep-2 cells worked out at 95.
As to `O=C1Nc2ccc(Cl)cc2C(c2ccccc2)=NC1NC(=O)N1CCCCC1` (stereo not drawn) [Example 153, Piperidine-1-carboxylic acid (7-chloro-2-oxo-5-phenyl-2,3-dihydro-1H-benzo[p][1,4]diazepin-3-yl)-amide], 5 µM corresponded to half-maximal inhibition with RSV (IC50). Further, in the data set on Hep-2 cells, the TC50 (2d) was over 100 µM and the “TC50 (6d)” value is given as over 100.
For “N-[5-(3-Chloro-phenyl)-2-oxo-5-phenyl-2,3-dihydro-1H-benzo[e][1,4]diazepin-3-yl]isonicotinamide [Example 160]”, in that order: 10 µM, over 100 µM and over 100.
Turning to `O=C(N[C@H]1N=C(c2ccccc2)c2ccccc2NC1=O)c1cccc2cc[nH]c12` [Example 81b], in the data set on RSV, the IC50 is 1.2 µM. For the same compound, the “TC50 (6d)” value in the data set on Hep-2 cells is listed as 35.6.
For “5-Acetyl-2-ethoxy-N-(2-oxo-5-phenyl-2,3-dihydro-1H-benzo[e][1,4]diazepin-3-yl)-benzamide [Example 76a]”, in that order: 3.5 µM and 64.
Turning to `O=C(Nc1cccc(F)c1)NC1N=C(c2ccccc2)c2ccccc2NC1=O` (stereo not drawn) [Example 128, 1-(3-Fluoro-phenyl)-3-(2-oxo-5-phenyl-2,3-dihydro-1H-benzo[e][1,4]diazepin-3-yl)-urea], the midpoint of inhibition with RSV (setting [1]), the IC50, lay at 6.1 µM. Further, the “TC50 (6d)” value with Hep-2 cells is reported as over 50.
